Source: patent US12365696B2, “Small-molecule focal adhesion kinase (FAK) inhibitors” (DANA-FARBER CANCER INSTITUTE, INC., priority 2019, dated 2025)

Key:
Assay in all cases: KINOMEscan
Type in all cases: binding
[1] = biological target: ABL2 (Homo sapiens (Human), UniProt P42684); settings: ABL2, 10000 nM; read-out: Percent Control
[2] = biological target: ADCK4 (Homo sapiens (Human), UniProt Q96D53); settings: ADCK4, 10000 nM; read-out: Percent Control
[3] = biological target: ALK(C1156Y) (Homo sapiens (Human), UniProt Q9UM73, C1156Y); settings: 10000 nM, read-out: Percent Control
[4] = biological target: BLK (Homo sapiens (Human), UniProt P51451); settings: 10000 nM, read-out: Percent Control
[5] = biological target: CDK4-cyclinD1 (Homo sapiens (Human), UniProt P11802); settings: CDK4-cyclinD1, 10000 nM; read-out: Percent Control
[6] = biological target: CLK1 (Homo sapiens (Human), UniProt P49759); settings: CLK1, 10000 nM; read-out: Percent Control
[7] = biological target: CLK3 (Homo sapiens (Human), UniProt P49761); settings: CLK3, 10000 nM; read-out: Percent Control
Sequence of CLK3 (P49761 whole entry): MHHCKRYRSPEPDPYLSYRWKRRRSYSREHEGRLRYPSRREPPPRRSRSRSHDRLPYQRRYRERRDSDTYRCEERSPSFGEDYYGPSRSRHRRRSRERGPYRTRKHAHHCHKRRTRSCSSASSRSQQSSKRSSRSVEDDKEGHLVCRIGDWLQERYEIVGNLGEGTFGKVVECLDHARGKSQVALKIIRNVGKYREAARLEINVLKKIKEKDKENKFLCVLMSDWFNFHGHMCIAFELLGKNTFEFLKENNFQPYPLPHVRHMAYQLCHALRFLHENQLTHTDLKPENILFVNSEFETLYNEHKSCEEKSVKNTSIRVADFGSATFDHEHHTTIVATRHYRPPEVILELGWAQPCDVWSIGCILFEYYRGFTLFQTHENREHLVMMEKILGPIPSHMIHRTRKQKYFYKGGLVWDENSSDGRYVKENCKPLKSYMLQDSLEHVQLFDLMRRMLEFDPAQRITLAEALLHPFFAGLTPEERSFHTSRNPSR

[8] = biological target: DYRK1B (Homo sapiens (Human), UniProt Q9Y463); settings: 10000 nM, read-out: Percent Control
Sequence of DYRK1B (Q9Y463 whole entry): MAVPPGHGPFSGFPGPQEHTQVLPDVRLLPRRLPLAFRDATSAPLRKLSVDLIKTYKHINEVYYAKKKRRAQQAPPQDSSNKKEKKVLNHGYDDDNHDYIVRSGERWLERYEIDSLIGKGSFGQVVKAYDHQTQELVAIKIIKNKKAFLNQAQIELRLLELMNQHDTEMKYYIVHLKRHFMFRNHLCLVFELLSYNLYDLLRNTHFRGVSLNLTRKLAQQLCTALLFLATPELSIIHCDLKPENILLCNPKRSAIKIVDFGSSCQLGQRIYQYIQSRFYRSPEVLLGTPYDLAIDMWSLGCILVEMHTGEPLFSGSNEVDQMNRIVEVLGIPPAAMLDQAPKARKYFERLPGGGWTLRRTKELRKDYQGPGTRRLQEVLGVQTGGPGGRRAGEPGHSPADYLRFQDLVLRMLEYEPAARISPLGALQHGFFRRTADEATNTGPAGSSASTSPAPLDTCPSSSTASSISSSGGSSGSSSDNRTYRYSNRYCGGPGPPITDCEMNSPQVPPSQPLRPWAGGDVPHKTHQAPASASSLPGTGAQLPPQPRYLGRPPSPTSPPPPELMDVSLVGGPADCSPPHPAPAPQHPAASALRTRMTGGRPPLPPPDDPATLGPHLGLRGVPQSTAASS

[9] = biological target: EGFR(T790M) (Homo sapiens (Human), UniProt P00533, T790M); settings: 10000 nM, read-out: Percent Control
[10] = biological target: EPHA4 (Homo sapiens (Human), UniProt P54764); settings: EPHA4, 10000 nM; read-out: Percent Control
[11] = biological target: EPHA5 (Homo sapiens (Human), UniProt P54756); settings: EPHA5, 10000 nM; read-out: Percent Control
[12] = biological target: ERBB3 (Homo sapiens (Human), UniProt P21860); settings: ERBB3, 10000 nM; read-out: Percent Control
[13] = biological target: FGFR4 (Homo sapiens (Human), UniProt P22455); settings: FGFR4, 10000 nM; read-out: Percent Control
[14] = test system: FLT3(ITD); settings: 10000 nM
[15] = biological target: GRK4 (Homo sapiens (Human), UniProt P32298); settings: GRK4, 10000 nM; read-out: Percent Control
[16] = biological target: HIPK3 (Homo sapiens (Human), UniProt Q9H422); settings: HIPK3, 10000 nM; read-out: Percent Control
Sequence of HIPK3 (Q9H422 whole entry): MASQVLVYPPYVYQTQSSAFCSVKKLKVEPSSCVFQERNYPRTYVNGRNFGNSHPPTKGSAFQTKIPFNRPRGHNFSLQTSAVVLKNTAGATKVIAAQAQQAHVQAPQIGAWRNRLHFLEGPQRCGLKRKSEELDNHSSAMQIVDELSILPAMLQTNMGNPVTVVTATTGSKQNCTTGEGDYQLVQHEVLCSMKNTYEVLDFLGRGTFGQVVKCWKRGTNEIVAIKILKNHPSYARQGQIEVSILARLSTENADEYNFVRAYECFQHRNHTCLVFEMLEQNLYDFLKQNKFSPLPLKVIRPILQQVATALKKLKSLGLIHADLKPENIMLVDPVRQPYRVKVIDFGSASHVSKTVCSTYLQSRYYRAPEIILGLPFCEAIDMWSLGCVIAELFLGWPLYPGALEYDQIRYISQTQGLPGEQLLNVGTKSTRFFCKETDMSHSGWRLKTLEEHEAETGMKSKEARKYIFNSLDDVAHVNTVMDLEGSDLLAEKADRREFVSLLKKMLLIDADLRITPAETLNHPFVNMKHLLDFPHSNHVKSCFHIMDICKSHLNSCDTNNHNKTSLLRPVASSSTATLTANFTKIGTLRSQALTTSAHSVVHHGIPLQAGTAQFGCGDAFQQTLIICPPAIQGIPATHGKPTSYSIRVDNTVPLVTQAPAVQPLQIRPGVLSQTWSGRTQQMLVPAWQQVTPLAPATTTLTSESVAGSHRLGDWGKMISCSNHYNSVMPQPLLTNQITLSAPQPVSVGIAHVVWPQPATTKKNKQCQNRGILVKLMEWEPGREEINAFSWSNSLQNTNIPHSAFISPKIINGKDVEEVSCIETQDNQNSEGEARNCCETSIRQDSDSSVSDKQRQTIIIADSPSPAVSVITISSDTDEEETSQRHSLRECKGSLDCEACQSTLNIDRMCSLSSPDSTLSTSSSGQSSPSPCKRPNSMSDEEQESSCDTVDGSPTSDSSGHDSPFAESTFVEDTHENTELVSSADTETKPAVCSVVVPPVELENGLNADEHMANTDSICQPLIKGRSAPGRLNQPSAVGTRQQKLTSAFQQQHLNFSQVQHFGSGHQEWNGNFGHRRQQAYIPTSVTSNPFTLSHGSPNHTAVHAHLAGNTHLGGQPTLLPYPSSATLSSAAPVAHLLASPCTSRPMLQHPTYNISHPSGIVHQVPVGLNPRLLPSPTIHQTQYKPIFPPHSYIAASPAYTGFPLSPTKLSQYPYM

[17] = biological target: IKK-alpha (Homo sapiens (Human), UniProt O15111); settings: 10000 nM, read-out: Percent Control
[18] = biological target: MEK1 (Homo sapiens (Human), UniProt Q02750); settings: MEK1, 10000 nM; read-out: Percent Control
Sequence of MEK1 (Q02750 whole entry): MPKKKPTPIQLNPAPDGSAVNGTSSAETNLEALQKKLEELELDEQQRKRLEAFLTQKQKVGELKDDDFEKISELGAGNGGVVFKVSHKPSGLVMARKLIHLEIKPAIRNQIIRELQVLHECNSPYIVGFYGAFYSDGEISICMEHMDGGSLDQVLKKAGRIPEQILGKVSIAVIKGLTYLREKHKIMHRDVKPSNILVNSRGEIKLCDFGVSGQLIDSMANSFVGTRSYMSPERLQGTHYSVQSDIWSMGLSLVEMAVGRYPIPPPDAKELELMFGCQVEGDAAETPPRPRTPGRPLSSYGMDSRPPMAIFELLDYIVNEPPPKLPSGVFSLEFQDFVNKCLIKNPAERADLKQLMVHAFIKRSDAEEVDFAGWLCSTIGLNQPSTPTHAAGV

[19] = biological target: MKNK1 (Homo sapiens (Human), UniProt Q9BUB5); settings: MKNK1, 10000 nM; read-out: Percent Control
[20] = biological target: MLK2 (Homo sapiens (Human), UniProt Q02779); settings: MLK2, 10000 nM; read-out: Percent Control
[21] = biological target: NEK10 (Homo sapiens (Human), UniProt Q6ZWH5); settings: NEK10, 10000 nM; read-out: Percent Control
[22] = biological target: NIK (Homo sapiens (Human), UniProt Q99558); settings: 10000 nM, read-out: Percent Control
[23] = biological target: PIK3C2G (Homo sapiens (Human), UniProt O75747); settings: 10000 nM, read-out: Percent Control
[24] = biological target: PIK3CA(I800L) (Homo sapiens (Human), UniProt P42336, I800L); settings: 10000 nM, read-out: Percent Control
[25] = biological target: PIP5K2B (Homo sapiens (Human), UniProt P78356); settings: 10000 nM, read-out: Percent Control
[26] = biological target: PRKCE (Homo sapiens (Human), UniProt Q02156); settings: 10000 nM, read-out: Percent Control
[27] = biological target: PRKCQ (Homo sapiens (Human), UniProt Q04759); settings: 10000 nM, read-out: Percent Control
[28] = biological target: PRKG1 (Homo sapiens (Human), UniProt Q13976); settings: PRKG1, 10000 nM; read-out: Percent Control
[29] = biological target: RET (Homo sapiens (Human), UniProt P07949); settings: 10000 nM, read-out: Percent Control
[30] = biological target: RET(V804L) (Homo sapiens (Human), UniProt P07949, V804L); settings: 10000 nM, read-out: Percent Control
[31] = biological target: RPS6KA4(Kin.Dom.2-C-terminal) (Homo sapiens (Human), UniProt O75676); settings: 10000 nM, read-out: Percent Control
Sequence of RPS6KA4(Kin.Dom.2-C-terminal) (O75676 411-674): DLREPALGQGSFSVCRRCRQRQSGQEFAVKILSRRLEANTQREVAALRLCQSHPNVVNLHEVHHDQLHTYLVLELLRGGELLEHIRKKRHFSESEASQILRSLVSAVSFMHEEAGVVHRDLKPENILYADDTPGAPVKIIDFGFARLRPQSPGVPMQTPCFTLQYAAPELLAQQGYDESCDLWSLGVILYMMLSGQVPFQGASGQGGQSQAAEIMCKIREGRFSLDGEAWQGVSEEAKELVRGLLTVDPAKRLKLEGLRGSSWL

[32] = biological target: STK35 (Homo sapiens (Human), UniProt Q8TDR2); settings: STK35, 10000 nM; read-out: Percent Control
[33] = biological target: SYK (Homo sapiens (Human), UniProt P43405); settings: 10000 nM, read-out: Percent Control
[34] = biological target: TTK (Homo sapiens (Human), UniProt P33981); settings: 10000 nM, read-out: Percent Control
Sequence of TTK (P33981 whole entry): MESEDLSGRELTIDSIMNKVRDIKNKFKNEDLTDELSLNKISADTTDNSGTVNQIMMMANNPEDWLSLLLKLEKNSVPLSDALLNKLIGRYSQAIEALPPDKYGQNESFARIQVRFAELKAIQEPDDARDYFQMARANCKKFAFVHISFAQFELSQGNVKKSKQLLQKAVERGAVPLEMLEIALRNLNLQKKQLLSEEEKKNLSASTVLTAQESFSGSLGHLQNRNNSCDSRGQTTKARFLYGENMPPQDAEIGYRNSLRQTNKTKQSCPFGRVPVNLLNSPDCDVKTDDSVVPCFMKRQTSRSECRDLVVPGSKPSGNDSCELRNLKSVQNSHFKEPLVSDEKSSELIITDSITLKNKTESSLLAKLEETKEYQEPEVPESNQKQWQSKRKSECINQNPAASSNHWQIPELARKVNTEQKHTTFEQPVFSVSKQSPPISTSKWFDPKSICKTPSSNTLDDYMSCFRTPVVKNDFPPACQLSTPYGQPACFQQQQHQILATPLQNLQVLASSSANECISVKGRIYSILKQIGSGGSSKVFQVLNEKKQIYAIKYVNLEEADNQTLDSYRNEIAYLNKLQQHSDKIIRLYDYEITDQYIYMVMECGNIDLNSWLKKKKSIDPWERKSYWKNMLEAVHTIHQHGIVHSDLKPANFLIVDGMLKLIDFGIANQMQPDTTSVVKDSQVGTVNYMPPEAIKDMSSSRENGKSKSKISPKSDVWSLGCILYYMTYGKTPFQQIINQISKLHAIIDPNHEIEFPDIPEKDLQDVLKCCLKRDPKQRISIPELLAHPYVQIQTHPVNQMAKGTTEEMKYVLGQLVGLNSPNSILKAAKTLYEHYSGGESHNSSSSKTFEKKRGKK

[35] = biological target: WEE1 (Homo sapiens (Human), UniProt P30291); settings: WEE1, 10000 nM; read-out: Percent Control

Sequence of ABL2 (P42684 whole entry): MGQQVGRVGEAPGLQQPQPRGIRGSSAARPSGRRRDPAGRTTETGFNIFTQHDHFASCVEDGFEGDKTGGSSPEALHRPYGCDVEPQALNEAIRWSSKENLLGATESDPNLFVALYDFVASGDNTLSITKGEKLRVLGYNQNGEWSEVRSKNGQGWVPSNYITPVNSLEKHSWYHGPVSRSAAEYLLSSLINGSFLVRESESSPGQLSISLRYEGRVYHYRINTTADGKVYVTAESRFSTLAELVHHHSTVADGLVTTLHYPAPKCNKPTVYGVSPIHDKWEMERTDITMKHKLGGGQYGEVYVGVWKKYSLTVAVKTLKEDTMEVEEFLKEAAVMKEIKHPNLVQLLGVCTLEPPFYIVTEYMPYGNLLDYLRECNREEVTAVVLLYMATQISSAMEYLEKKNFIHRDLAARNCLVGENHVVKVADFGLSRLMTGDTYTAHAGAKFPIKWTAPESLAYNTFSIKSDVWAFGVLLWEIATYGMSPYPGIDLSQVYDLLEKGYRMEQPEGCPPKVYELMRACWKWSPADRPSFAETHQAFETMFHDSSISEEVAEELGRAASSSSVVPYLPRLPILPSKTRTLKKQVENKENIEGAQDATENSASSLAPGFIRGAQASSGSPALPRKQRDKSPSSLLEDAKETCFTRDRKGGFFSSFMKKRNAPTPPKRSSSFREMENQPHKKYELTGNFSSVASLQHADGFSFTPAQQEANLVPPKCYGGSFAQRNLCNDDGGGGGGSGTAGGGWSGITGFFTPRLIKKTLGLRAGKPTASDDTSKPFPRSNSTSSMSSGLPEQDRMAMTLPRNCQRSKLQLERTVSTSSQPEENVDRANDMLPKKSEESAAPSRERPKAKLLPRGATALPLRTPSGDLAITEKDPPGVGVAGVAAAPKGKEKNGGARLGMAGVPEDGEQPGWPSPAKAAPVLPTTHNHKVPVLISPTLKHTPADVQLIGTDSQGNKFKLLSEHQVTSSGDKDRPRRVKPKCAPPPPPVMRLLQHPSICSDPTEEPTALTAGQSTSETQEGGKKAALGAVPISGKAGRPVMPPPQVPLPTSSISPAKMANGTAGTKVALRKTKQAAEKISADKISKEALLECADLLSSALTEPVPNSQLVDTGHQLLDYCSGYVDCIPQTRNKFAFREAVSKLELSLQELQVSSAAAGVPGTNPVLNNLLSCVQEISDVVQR

SMILES	remaining binding at 10 µM [1] [%]	remaining binding at 10 µM [2] [%]	remaining binding at 10 µM [3] [%]	remaining binding at 10 µM [4] [%]	remaining binding at 10 µM [5] [%]	remaining binding at 10 µM [6] [%]	remaining binding at 10 µM [7] [%]	remaining binding at 10 µM [8] [%]	remaining binding at 10 µM [9] [%]	remaining binding at 10 µM [10] [%]	remaining binding at 10 µM [11] [%]	remaining binding at 10 µM [12] [%]	remaining binding at 10 µM [13] [%]	Percent Control [14] [%]	remaining binding at 10 µM [15] [%]	remaining binding at 10 µM [16] [%]	remaining binding at 10 µM [17] [%]	remaining binding at 10 µM [18] [%]	remaining binding at 10 µM [19] [%]	remaining binding at 10 µM [20] [%]	other results
COc1cc(N2CCC(N3CCN(C)CC3)CC2)ccc1Nc1ncc2c(n1)N(C)c1sc(C)nc1C(=O)N2 [Compound 3, 6-((2-methoxy-4-(4-(4-methylpiperazin-1-yl)piperidin-1-yl)phenyl)amino)-2,4-dimethyl-4,9-dihydro-10H-pyrimido[5,4-b]thiazolo[5,4-e][1,4]diazepin-10-one]	69	83	100	55	100	90	97	69	100	87	65	100	90	83	72	100	100	100	100	96	remaining binding at 10 µM [21]: 100%; remaining binding at 10 µM [22]: 85%; remaining binding at 10 µM [23]: 69%; remaining binding at 10 µM [24]: 100%; remaining binding at 10 µM [25]: 76%; remaining binding at 10 µM [26]: 100%; remaining binding at 10 µM [27]: 89%; remaining binding at 10 µM [28]: 93%; remaining binding at 10 µM [29]: 99%; remaining binding at 10 µM [30]: 95%; remaining binding at 10 µM [31]: 100%; remaining binding at 10 µM [32]: 89%; remaining binding at 10 µM [33]: 77%; remaining binding at 10 µM [34]: 51%; remaining binding at 10 µM [35]: 88%
COc1cc(N2CCC(N3CCN(C)CC3)CC2)ccc1Nc1ncc2c(n1)N(C)c1sc(C)nc1C(=O)N2C [Compound 5, 6-((2-methoxy-4-(4-(4-methylpiperazin-1-yl)piperidin-1-yl)phenyl)amino)-2,4,9-trimethyl-4,9-dihydro-10H-pyrimido[5,4-b]thiazolo[5,4-e][1,4]diazepin-10-one]	95	73	89	95	90	100	97	87	93	68	95	100	88	100	97	100	100	95	96	76	remaining binding at 10 µM [21]: 94%; remaining binding at 10 µM [22]: 93%; remaining binding at 10 µM [23]: 100%; remaining binding at 10 µM [24]: 70%; remaining binding at 10 µM [25]: 39%; remaining binding at 10 µM [26]: 100%; remaining binding at 10 µM [27]: 88%; remaining binding at 10 µM [28]: 100%; remaining binding at 10 µM [29]: 100%; remaining binding at 10 µM [30]: 93%; remaining binding at 10 µM [31]: 30%; remaining binding at 10 µM [32]: 100%; remaining binding at 10 µM [33]: 89%; remaining binding at 10 µM [34]: 6.9%; remaining binding at 10 µM [35]: 98%
